# Data published in patent US6177592A, “Compounds” (priority 1997, dated 2001).
# Entries after “also recorded” stand apart in the source; their conditions may differ.
# How the values were obtained:
# [1] = system: Bacillus subtilis IFO 3021; assay: Antibacterial activity, viable cell numbers; assay type: cell-based; conditions: compared with GM
# Description: Bacillus subtilis IFO 3021 was incubated (by mans of a seed culture) overnight in a sensitive bouillon medium (manufactured by Nissui). Absorbance at 600 nm was measured and viable cell numbers were calculated from the previously-prepared calibration curve showing the relation between the viable cell numbers and absorbance at 600 nm. The seed-cultured liquid was diluted with a fresh sensitive bouillon medium to make the concentration 1×10^6 cells/ml and each 180 μl thereof was placed in each well of the 96-well microtiter plate. Each 20 μl of aqueous solution of GM (4 mg/ml or 2 mg/ml) or water was added to each well followed by allowing to a stationary culture at 37° C. for one night (main incubation) In the meanwhile, a part of the seed culture liquid was diluted with sterilized water, spread onto a sensitive bouillon agar plate medium and incubated at 37° C. for one night and the colonies were counted to measure the precise viable cell numbers.
# The cultured liquid in each of the wells was diluted with sterilized water, spread onto a sensitive bouillon agar plate medium and incubated at 37° C. for one night and the colonies were counter to measure the viable cell numbers.
# mouse leukemia P-388 = assay: Mouse leukemia P-388 survival (macrobiotic effect) in DBA/2 mice; assay type: in vivo; conditions: 10 mg/kg/day i.p., five days
# Description: GM was diluted with a physiological saline solution to a predetermined concentration and subjected to the following tests.
# (2) Mouse leukemia P-388 (1.1×10^6 cells/mouse) was intraperitoneally injected to female DBA/2 mice (body weight: about 20 g) of seven weeks age. After that, GM, CM, GD or CD (10 mg/kg/day) was intraperitoneally injected for consecutive five clays. In the meanwhile, a physiological saline solution was intraperitoneally injected to the control group by the same manner. In the two group each consisting of eight mice, survived numbers, average survived days and macrobiotic rate of the mice were calculated.
# Sarcoma-180 = assay: Sarcoma-180/ICR mice macrobiotic effect; assay type: in vivo
# HL-60 cells [2] = assay: Apoptosis in HL-60 cells (apoptic bodies, DNA fragmentation); assay type: cell-based, human; conditions: at each of the cell-growth-inhibiting concentrations
# Description: (1) Each 0.5 ml of 0.2 mM CM, 0.8 mM CM or 1.6 mM CM was added to 4.5 ml of RPMI 1640 medium containing 10% of fetal calf serum and 2.5×10^5HL-60 cells (promyelocytic leukemia cell) (ATCC CCL-240) and incubated at 37° C. for 24 hours or 48 hours in the presence of 5% carbon dioxide gas and the numbers of viable cells were measured.
# (§1) (2) To each of the wells of a 96-well microtiter plate was added 8, 40, 200 or 1000 μM aqueous solution of GM or 10 μl of water as a control. HL-60 (ATCC CCL-240) was suspended in an RPMI 1640 medium containing 10% of fetal calf serum to make the concentration 5×10^4 cells/ml and each 90 μl thereof was placed in each well of the above-mentioned microtiter plate and incubated at 37° C. for 48 hours in the presence of 5% carbon dioxide. Incubation was conducted for four hours more after addition of 10 μl of a solution (5 mg/ml) of 3-(4,5-dimethylthiazol-2-yl)-2,5-diphenyltetrzolium bromide (MTT; manufactured by Sigma) in a phosphate-buffered saline solution and the state of growth of the cells was observed under a microscope. Further, 100 μl of 2-propanol containing 0.04N hydrochloric acid was added followed by stirring and an absorbance at 590 nm was measured.
# (4) HL-60 cells (ATCC CCL240) which were incubated at 37° C. in an RPMI 1640 medium (manufactured by Nissui) containing 10% of fetal calf serum (manufactured by Gibco) treated at 56° C. for 30 minutes were suspended in the above medium to make the concentration 2.5×10^5cells/4.5 ml. To this suspension was added 0.5 ml of 100 μM aqueous solution of GM (final concentration: 10 μM) followed by incubating at 37° C. in the presence of 5% carbon dioxide gas for 24 hours, 48 hours and 72 hours.
# (§2) (5) To each well of the 96-well microtiter plate was added 4.12, 12.3, 37.0, 111, 333 or 1000 μM aqueous solution of GD or 10 μl of water as a control. HL-60 (ATCC CCL-240) was suspended in an RPMI 1640 medium containing 10% of fetal calf serum to make the concentration 5×10^4 cells/ml and each 90 μl thereof was placed in each well of the above-mentioned microtiter plate followed by incubating at 37° C. for 48 hours in the presence of 5% carbon dioxide gas. The incubation was conducted for four hours more after addition of 10 μl of 5 mg/ml solution of 3-(4,5-dimethylthiazol-2-yl)-2,5-diphenyltetrazolium bromide (MTT; manufactured by Sigma) in a phosphate-buffered saline solution and the state of growth of the cells was observed under a microscope. In the meanwhile, 100 μl of 2-propanol containing 0.04N HCl was added followed by well stirring and the absorbance at 590 nm was measured.
# EAC = assay: EAC/DDY mice macrobiotic effect; assay type: in vivo
# IMC = assay: IMC/CDF1 mice macrobiotic effect; assay type: in vivo
# HL-60 cells [3] = assay: MTT growth inhibition of HL-60; assay type: cell-based, human; conditions: for inhibition activity of the growth of cancer cells (in words): Example 5; for activity at 10 µM / activity at 20 µM / activity at 40 µM: read-out: degree of cell growth (ratio of absorbance at 590 nm of sample-added section to control)
# Description: as §1
# (3) To each well of the 96-well microtiter plate was added 100, 200 or 400 μM aqueous solution of GM or CM or 10 μl of water as a control and the inhibition activity of growth of HL-60 was measured by the same method as mentioned in Example 5-(2). The degree of cell growth was, however, expressed in terms of the ratio (%) of the absorbance at 590 nm of the sample-added section to that of the water-added section (the control).
# as §2
# (6) Cyclopentenone and L-cysteine hydrochloride were dissolved in a phosphate buffered saline solution (pH 7.2) to make their concentrations 55 mM and 80 mM, respectively and made to react at 37° C. for 15 minutes at pH 7.2. Apart of the reaction solution was analyzed by a reversed phase HPLC using a column of TSK gel ODS-80Ts (4.6 mm×250 mm; manufactured by Tosoh)at the flow rate of 1 ml/minute using 0.1% aqueous solution of trifluoroacetic acid as a mobile phase whereupon no cyclopentenone was detected. This reaction solution was a solution containing 55 mM of CD.
# Degree of cell growth was, however, expressed in terms of the ratio (%) of the absorbance at 590 nm of the section to which the sample was added to that of the control where water was added.
# HSP70 = conditions: cited from earlier work
# [4] = system: vesicular stomatitis virus protein; conditions: Rossi et al., J. Biol. Chem. 271, 32192 (1996); cited from earlier work
# [5] = system: Sendai virus protein synthesis; conditions: Amici et al., J. Virology 68, 6890 (1994); cited from earlier work
# HSP70 and HSP90 = conditions: Amici et al., J. Virology 68, 6890 (1994); cited from earlier work
Structure (SMILES),antibacterial activity (in words) [1],macrobiotic effect (average survived days) (mouse leukemia P-388),macrobiotic effect (Sarcoma-180),apoptic bodies in the cells (HL-60 cells [2]),macrobiotic effect (EAC),macrobiotic effect (IMC),inhibition activity of the growth of cancer cells (in words) (HL-60 cells [3]),"activity at 10 µM (HL-60 cells [3]; Homo sapiens, HL-60, 48 hours) [%]","activity at 20 µM (HL-60 cells [3]; Homo sapiens, HL-60, 48 hours) [%]","activity at 40 µM (HL-60 cells [3]; Homo sapiens, HL-60, 48 hours) [%]","IC100 (HL-60 cells [3]; Homo sapiens, HL-60, 48 hours, MTT, final concentration, read-out: concentration at which growth of HL-60 cells was completely inhibited) [µM]","synthesis of HSP70 (HSP70; Rossi et al., J. Biol. Chem. 271, 32192 (1996))",concentration required for inducing the HSP70 (HSP70),synthesis of vesicular stomatitis virus protein [4],synthesis of virus protein [5],synthesis of HSP70 and HSP90 (HSP70 and HSP90)
"N[C@@H](CCC(=O)N[C@@H](CSC1CC(=O)C(O)C1O)C(=O)NCC(=O)O)C(=O)O (some centres unmarked) [GD, 2,3-dihydroxy-4-glutathion-S-yl-cyclopentanone]",same results,significant macrobiotic effect,same macrobiotic effect,apoptic bodies were detected; also recorded: Apoptic bodies were produced in the cells,same macrobiotic effect,same macrobiotic effect,inhibition activity of the growth of cancer cells,47.2,5.8,2.1,3.7,–,–,–,–,–
O=C1C=CCC1 [2-cyclopenten-1-one],–,–,–,–,–,–,–,–,–,–,–,induces the synthesis of HSP70,several hundred,inhibits the synthesis of vesicular stomatitis virus protein,–,–
N[C@@H](CSC1CC(=O)C(O)C1O)C(=O)O (some centres unmarked) [CD],same results,significant macrobiotic effect,same macrobiotic effect,Apoptic bodies were produced in the cells,same macrobiotic effect,same macrobiotic effect,inhibition activity of the growth of cancer cells,89,56.2,5.3,–,–,–,–,–,–
CCCCC[C@H](O)/C=C/[C@H]1C=CC(=O)[C@@H]1CCCCCCC(=O)O [prostaglandin Al],–,–,–,–,–,–,–,–,–,–,–,–,–,–,synthesis of virus protein is inhibited,synthesis of HSP70 and HS?90 is induced
